Experiment in all cases: relative viability (nuclei count vs DMSO), 5 days (fraction); higher = more cells survive
Compound in one experiment: CC[C@H](Nc1ncnc2[nH]cnc12)c1nc2cccc(F)c2c(=O)n1-c1ccccc1 [Idelalisib]
Put shortly: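 Following overnight incubation at 37 °C, lung cancer cell lines in 1536-well plates were pinned with five library-drug doses (not always all listed) in √10 steps on vehicle-anchored plates. The cells then spent 5 days without medium change before a combined fix, permeabilisation and Hoechst stain, 4× imaging and MetaXpress nuclear counts. Viability is the treated-to-vehicle ratio of nuclei, taken as the median across plates. Only plates with control CV below 25% and at least one doubling passed.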

Compound in the experiment “Idelalisib + Pemetrexed”: CC[C@H](Nc1ncnc2[nH]cnc12)c1nc2cccc(F)c2c(=O)n1-c1ccccc1 [Idelalisib] + Nc1nc2[nH]cc(CCc3ccc(C(=O)N[C@@H](CCC(=O)O)C(=O)O)cc3)c2c(=O)[nH]1 [Pemetrexed] (partner 0.2 µM)
Put shortly:
(§1)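 Nuclei were stained with Hoechst during a one-step fixation (final 0.05% Triton X-100, 1% formaldehyde, 1 ug/ml Hoechst) carried out 5 days after dosing, then counted on 4× images. The cells, lung cancer lines in 1536-well plates, had been dosed by pin tool the day after seeding with one drug alone or a fixed anchor-drug dose plus five library-drug doses (not always all listed) in √10 steps. Relative viability is the nuclei count in treated wells divided by that in vehicle wells, and each value is the median of duplicate plates.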

Compound in the experiment “Pemetrexed + OSI-027”: Nc1nc2[nH]cc(CCc3ccc(C(=O)N[C@@H](CCC(=O)O)C(=O)O)cc3)c2c(=O)[nH]1 [Pemetrexed] + COc1cccc2cc(-c3nc([C@H]4CC[C@H](C(=O)O)CC4)n4ncnc(N)c34)[nH]c12 [OSI-027] (partner 0.5 µM)
Put shortly: as §1

Compound in the experiment “Idelalisib + Luminespib”: CC[C@H](Nc1ncnc2[nH]cnc12)c1nc2cccc(F)c2c(=O)n1-c1ccccc1 [Idelalisib] + CCNC(=O)c1noc(-c2cc(C(C)C)c(O)cc2O)c1-c1ccc(CN2CCOCC2)cc1 [Luminespib] (partner 0.01 µM)
An outline of the steps: as §1

For 201T, the relative viability in the experiment with Idelalisib (0.04 µM) stood at 0.985; in the experiment with Idelalisib (0.1265 µM) it was 1.01; with Idelalisib (0.4 µM) it was 0.885; with Idelalisib (1.265 µM), 1.06; with Idelalisib (4 µM), 0.867; in the experiment with Idelalisib + Pemetrexed (first compound 0.04 µM), 0.352. Also, the relative viability with Idelalisib + Pemetrexed (first compound 0.1265 µM) came out at 0.318; with Idelalisib + Pemetrexed (first compound 0.4 µM) it was 0.357; in the experiment with Idelalisib + Pemetrexed (first compound 1.265 µM), 0.314; with Idelalisib + Pemetrexed (first compound 4 µM), 0.32; in the experiment with Pemetrexed + OSI-027 (first compound 0.002 µM), 0.748; with Pemetrexed + OSI-027 (first compound 0.006325 µM), 0.739. In addition, the relative viability with Pemetrexed + OSI-027 (first compound 0.02 µM) came to 0.748; with Pemetrexed + OSI-027 (first compound 0.06325 µM) it was 0.617; in the experiment with Pemetrexed + OSI-027 (first compound 0.2 µM), 0.406; in the experiment with Idelalisib + Luminespib (first compound 0.04 µM), 1.12; with Idelalisib + Luminespib (first compound 0.1265 µM), 1.07; with Idelalisib + Luminespib (first compound 0.4 µM), 1.02. Besides, the relative viability in the experiment with Idelalisib + Luminespib (first compound 1.265 µM) is 1.02; with Idelalisib + Luminespib (first compound 4 µM), 0.849.

As to A549, the relative viability stood at 1.01 in the experiment with Idelalisib (0.04 µM); 0.956 with Idelalisib (0.1265 µM); 0.747 in the experiment with Idelalisib (0.4 µM); 1.04 in the experiment with Idelalisib (1.265 µM); 0.825 with Idelalisib (4 µM).

In the case of A-427, the relative viability was 1.14 in the experiment with Idelalisib (0.04 µM); 1.01 with Idelalisib (0.1265 µM); 0.883 in the experiment with Idelalisib (0.4 µM); 1.01 with Idelalisib (1.265 µM); 0.904 in the experiment with Idelalisib (4 µM); 1.11 with Idelalisib + Pemetrexed (first compound 0.04 µM). The relative viability with Idelalisib + Pemetrexed (first compound 0.1265 µM) was found to be 1; in the experiment with Idelalisib + Pemetrexed (first compound 0.4 µM), 0.925; with Idelalisib + Pemetrexed (first compound 1.265 µM), 0.998; with Idelalisib + Pemetrexed (first compound 4 µM), 0.955; in the experiment with Pemetrexed + OSI-027 (first compound 0.002 µM), 0.422; in the experiment with Pemetrexed + OSI-027 (first compound 0.006325 µM), 0.431. The relative viability was 0.481 with Pemetrexed + OSI-027 (first compound 0.02 µM); 0.466 with Pemetrexed + OSI-027 (first compound 0.06325 µM); 0.402 with Pemetrexed + OSI-027 (first compound 0.2 µM); 0.833 in the experiment with Idelalisib + Luminespib (first compound 0.04 µM); 0.857 in the experiment with Idelalisib + Luminespib (first compound 0.1265 µM); 0.744 with Idelalisib + Luminespib (first compound 0.4 µM). Further, the relative viability with Idelalisib + Luminespib (first compound 1.265 µM) was determined as 0.879; with Idelalisib + Luminespib (first compound 4 µM), 0.783.

In the case of ABC-1, the relative viability in the experiment with Idelalisib (0.04 µM) amounted to 0.917; with Idelalisib (0.1265 µM), 0.938; with Idelalisib (0.4 µM), 0.955; in the experiment with Idelalisib (1.265 µM), 0.895; with Idelalisib (4 µM) it was 0.961; with Pemetrexed + OSI-027 (first compound 0.002 µM), 0.515. Also, the relative viability with Pemetrexed + OSI-027 (first compound 0.006325 µM) is 0.359; with Pemetrexed + OSI-027 (first compound 0.02 µM) it was 0.736; in the experiment with Pemetrexed + OSI-027 (first compound 0.06325 µM), 0.529; with Pemetrexed + OSI-027 (first compound 0.2 µM), 0.512; with Idelalisib + Luminespib (first compound 0.04 µM), 0.466; with Idelalisib + Luminespib (first compound 0.1265 µM), 0.643. Moreover, the relative viability was determined as 0.521 in the experiment with Idelalisib + Luminespib (first compound 1.265 µM) and 0.497 with Idelalisib + Luminespib (first compound 4 µM).

BEN: the relative viability came to 1.05 with Idelalisib (0.04 µM); 0.883 in the experiment with Idelalisib (0.1265 µM); 0.975 in the experiment with Idelalisib (0.4 µM); 0.968 in the experiment with Idelalisib (1.265 µM); 0.875 with Idelalisib (4 µM); 0.824 with Idelalisib + Pemetrexed (first compound 0.04 µM). In addition, the relative viability is 0.709 with Idelalisib + Pemetrexed (first compound 0.1265 µM); 0.895 in the experiment with Idelalisib + Pemetrexed (first compound 0.4 µM); 0.736 in the experiment with Idelalisib + Pemetrexed (first compound 1.265 µM); 0.724 in the experiment with Idelalisib + Pemetrexed (first compound 4 µM); 0.318 in the experiment with Pemetrexed + OSI-027 (first compound 0.002 µM); 0.301 with Pemetrexed + OSI-027 (first compound 0.006325 µM). The relative viability with Pemetrexed + OSI-027 (first compound 0.02 µM) was 0.302; in the experiment with Pemetrexed + OSI-027 (first compound 0.06325 µM), 0.296; with Pemetrexed + OSI-027 (first compound 0.2 µM), 0.332; in the experiment with Idelalisib + Luminespib (first compound 0.04 µM) it was 0.333; with Idelalisib + Luminespib (first compound 0.1265 µM), 0.459; with Idelalisib + Luminespib (first compound 0.4 µM), 0.232. In addition, the relative viability stood at 0.416 with Idelalisib + Luminespib (first compound 1.265 µM) and 0.242 with Idelalisib + Luminespib (first compound 4 µM).

Regarding CAL-12T, the relative viability came out at 1.1 with Idelalisib (0.04 µM); 1.08 in the experiment with Idelalisib (0.1265 µM); 1.01 in the experiment with Idelalisib (0.4 µM); 1.11 with Idelalisib (1.265 µM); 1.08 in the experiment with Idelalisib (4 µM); 1.34 with Idelalisib + Pemetrexed (first compound 0.04 µM). Moreover, the relative viability worked out at 0.925 in the experiment with Idelalisib + Pemetrexed (first compound 0.1265 µM); 1.22 in the experiment with Idelalisib + Pemetrexed (first compound 0.4 µM); 1.21 with Idelalisib + Pemetrexed (first compound 1.265 µM); 1.23 with Idelalisib + Pemetrexed (first compound 4 µM); 0.617 with Pemetrexed + OSI-027 (first compound 0.002 µM); 0.631 with Pemetrexed + OSI-027 (first compound 0.006325 µM). The relative viability in the experiment with Pemetrexed + OSI-027 (first compound 0.02 µM) came to 0.819; with Pemetrexed + OSI-027 (first compound 0.06325 µM), 0.648; with Pemetrexed + OSI-027 (first compound 0.2 µM), 0.671; with Idelalisib + Luminespib (first compound 0.04 µM) it was 0.302; with Idelalisib + Luminespib (first compound 0.1265 µM) it was 0.635; in the experiment with Idelalisib + Luminespib (first compound 0.4 µM), 0.362. The relative viability was determined as 0.564 in the experiment with Idelalisib + Luminespib (first compound 1.265 µM) and 0.264 with Idelalisib + Luminespib (first compound 4 µM).

Regarding COR-L23, the relative viability came to 1.12 with Idelalisib (0.04 µM); 1.05 with Idelalisib (0.1265 µM); 0.931 in the experiment with Idelalisib (0.4 µM); 1.14 in the experiment with Idelalisib (1.265 µM); 0.949 in the experiment with Idelalisib (4 µM); 0.186 with Idelalisib + Pemetrexed (first compound 0.04 µM). The relative viability in the experiment with Idelalisib + Pemetrexed (first compound 0.1265 µM) turned out to be 0.203; in the experiment with Idelalisib + Pemetrexed (first compound 0.4 µM), 0.199; in the experiment with Idelalisib + Pemetrexed (first compound 1.265 µM), 0.204; with Idelalisib + Pemetrexed (first compound 4 µM), 0.182; in the experiment with Pemetrexed + OSI-027 (first compound 0.002 µM), 0.699; with Pemetrexed + OSI-027 (first compound 0.006325 µM), 0.781. Moreover, the relative viability with Pemetrexed + OSI-027 (first compound 0.02 µM) is 0.799; with Pemetrexed + OSI-027 (first compound 0.06325 µM) it was 0.275; in the experiment with Pemetrexed + OSI-027 (first compound 0.2 µM), 0.163; with Idelalisib + Luminespib (first compound 0.04 µM), 0.848; with Idelalisib + Luminespib (first compound 0.1265 µM) it was 0.681; with Idelalisib + Luminespib (first compound 0.4 µM), 0.699. Also, the relative viability with Idelalisib + Luminespib (first compound 1.265 µM) was 0.819; with Idelalisib + Luminespib (first compound 4 µM) it was 0.549.

Regarding COR-L 105, the relative viability turned out to be 1.03 with Idelalisib (0.04 µM); 0.997 with Idelalisib (0.1265 µM); 0.802 with Idelalisib (0.4 µM); 0.976 with Idelalisib (1.265 µM); 0.752 in the experiment with Idelalisib (4 µM); 1.18 with Idelalisib + Pemetrexed (first compound 0.04 µM). The relative viability with Idelalisib + Pemetrexed (first compound 0.1265 µM) came out at 1.1; with Idelalisib + Pemetrexed (first compound 0.4 µM), 0.913; in the experiment with Idelalisib + Pemetrexed (first compound 1.265 µM), 1.06; with Idelalisib + Pemetrexed (first compound 4 µM) it was 0.924; with Pemetrexed + OSI-027 (first compound 0.002 µM), 0.735; in the experiment with Pemetrexed + OSI-027 (first compound 0.006325 µM), 0.638. Also, the relative viability in the experiment with Pemetrexed + OSI-027 (first compound 0.02 µM) was 1.01; in the experiment with Pemetrexed + OSI-027 (first compound 0.06325 µM) it was 0.646; with Pemetrexed + OSI-027 (first compound 0.2 µM) it was 0.619; with Idelalisib + Luminespib (first compound 0.04 µM), 0.695; with Idelalisib + Luminespib (first compound 0.1265 µM), 0.783; with Idelalisib + Luminespib (first compound 0.4 µM) it was 0.814. For the same cell line, the relative viability in the experiment with Idelalisib + Luminespib (first compound 1.265 µM) came out at 0.699; with Idelalisib + Luminespib (first compound 4 µM) it was 0.573.

For Calu-6, the relative viability in the experiment with Idelalisib (0.04 µM) was 1.04; with Idelalisib (0.1265 µM), 1.04; in the experiment with Idelalisib (0.4 µM), 0.977; with Idelalisib (1.265 µM), 0.998; in the experiment with Idelalisib (4 µM), 0.947.

Source of the values: the supplement of paper PMC10307832.
